# In PubChem BioAssay AID652249 (Broad Institute, 2013):
# Records with an inconclusive call do not appear. Active and inactive are the calls of the source.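 The calls were made as follows: active = platelet aggregation inhibition above 50% relative to unstimulated and buffer-only controls; inactive = the rest, inconclusive results apart.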
# Tested on: human washed platelets, SFLLRN-induced aggregation, aggregometer
# Test: inhibition of SFLLRN-induced platelet aggregation, late-stage follow-up, mechanism study for PDI inhibitor project, cell-based, aggregometer, single point, dry powder samples (AID 652249)
# Conditions: at 30 µM; hits give high values
row,SMILES,aggregation inhibition (transmittance)
1,CC(C)(C)OC(=O)C1(CCOc2ccccc2)CCN(Cc2ccc(O)c(Cl)c2)CC1,100%
2,C/C1=C\[C@@H](O)C(C)(C)CCCC2(C)OC2C[C@@H]1OC(=O)c1ccc(O)cc1 (stereo not given in full),17% (inactive)
3,O=C(Nc1ccccc1)C1(CCOc2ccccc2)CCN(Cc2ccc(O)c(Cl)c2)CC1,23% (inactive)
4,O=C(NC1CCCC1)C1(CCOc2ccccc2)CCN(Cc2ccc(O)c(Cl)c2)CC1,1% (inactive)
5,C/C1=C\C[C@H](OC(=O)c2ccc(O)cc2)/C(C)=C/[C@@H](O)C(C)(C)CCC1,100%
6,CCOC(=O)C1(CCOc2ccccc2)CCN(C(=O)c2ccc(O)c(Cl)c2)CC1,100%
7,CCOC(=O)C1(CCOc2ccccc2)CCN(Cc2ccc(O)cc2)CC1,0% (inactive)
8,CC(C)OC(=O)C1(CCOc2ccccc2)CCN(Cc2ccc(O)c(Cl)c2)CC1,97%
9,CCN(C)C(=O)C1(CCOc2ccccc2)CCN(Cc2ccc(O)c(Cl)c2)CC1,2% (inactive)
10,CCOC(=O)C1(CCOc2ccccc2)CCN(Cc2ccc(OC)c(Cl)c2)CC1,4% (inactive)
